Experimental data: paper PMC10395314 (RSC Advances, 2023)

Tests used:
Vero cells = test: Safety assay on non-cancerous Vero cells; format: cell-based
VEGFR-2 [1] = test: MM-GBSA binding free energy and decomposition; conditions: 15a versus sorafenib
caspase-9 = test: Caspase-9 level in HepG2 cells; format: cell-based, human
HepG2 cells [2] = test: Apoptosis assay, Annexin V-FITC/PI flow cytometry; format: cell-based, human
HepG2 = test: MTT anti-proliferative assay on HepG2; conditions: Homo sapiens, HepG2, read-out: In vitro cytotoxicity IC50 HepG2
VEGFR-2 [3] = target: VEGFR-2 (Homo sapiens, UniProt P35968); test: In vitro VEGFR-2 inhibition; format: biochemical
Chain of VEGFR-2 (Homo sapiens, UniProt P35968) (P35968 20-1356): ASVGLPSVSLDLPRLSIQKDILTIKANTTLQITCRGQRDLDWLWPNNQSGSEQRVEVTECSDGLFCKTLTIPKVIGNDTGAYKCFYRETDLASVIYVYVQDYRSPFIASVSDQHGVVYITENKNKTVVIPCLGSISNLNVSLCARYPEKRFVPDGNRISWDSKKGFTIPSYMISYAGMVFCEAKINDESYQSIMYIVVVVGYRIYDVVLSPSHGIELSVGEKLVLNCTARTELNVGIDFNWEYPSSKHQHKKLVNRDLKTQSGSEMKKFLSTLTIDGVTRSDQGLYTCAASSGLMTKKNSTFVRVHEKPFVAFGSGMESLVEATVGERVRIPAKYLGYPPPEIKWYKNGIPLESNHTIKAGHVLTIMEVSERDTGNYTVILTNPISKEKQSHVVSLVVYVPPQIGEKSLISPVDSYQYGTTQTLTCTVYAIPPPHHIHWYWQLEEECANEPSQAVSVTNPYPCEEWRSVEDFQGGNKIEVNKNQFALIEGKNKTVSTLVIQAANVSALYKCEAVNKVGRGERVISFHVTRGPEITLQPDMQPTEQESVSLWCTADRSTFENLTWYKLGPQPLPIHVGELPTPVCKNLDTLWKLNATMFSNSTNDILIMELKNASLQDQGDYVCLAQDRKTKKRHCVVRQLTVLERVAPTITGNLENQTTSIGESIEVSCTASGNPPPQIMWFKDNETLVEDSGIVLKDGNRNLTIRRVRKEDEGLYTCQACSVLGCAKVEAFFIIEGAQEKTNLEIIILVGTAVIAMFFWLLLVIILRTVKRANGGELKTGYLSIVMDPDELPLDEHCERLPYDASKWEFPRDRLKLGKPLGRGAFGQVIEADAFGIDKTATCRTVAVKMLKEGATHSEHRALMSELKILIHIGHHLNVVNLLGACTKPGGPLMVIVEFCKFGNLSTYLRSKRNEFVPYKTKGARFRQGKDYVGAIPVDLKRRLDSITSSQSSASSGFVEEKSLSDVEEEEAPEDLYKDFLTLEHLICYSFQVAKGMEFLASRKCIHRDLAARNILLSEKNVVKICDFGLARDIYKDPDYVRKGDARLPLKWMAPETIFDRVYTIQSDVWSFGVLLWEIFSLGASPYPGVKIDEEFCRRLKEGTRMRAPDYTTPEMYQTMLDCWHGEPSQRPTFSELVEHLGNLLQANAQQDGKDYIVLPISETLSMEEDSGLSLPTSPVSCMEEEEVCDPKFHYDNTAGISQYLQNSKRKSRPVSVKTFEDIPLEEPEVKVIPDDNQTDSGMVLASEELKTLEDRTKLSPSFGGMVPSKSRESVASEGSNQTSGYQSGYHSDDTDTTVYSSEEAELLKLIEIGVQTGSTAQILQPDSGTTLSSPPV

MCF-7 = test: MTT anti-proliferative assay on MCF-7; conditions: Homo sapiens, MCF7, read-out: In vitro cytotoxicity IC50 MCF-7
HepG2 cells [4] = test: Wound healing; format: cell-based, human
caspase-3 = test: Caspase-3 level in HepG2 cells; format: cell-based, human
[5] = HepG2, 0.76 μM, control HepG2 = 1

CC(=NNC(=O)c1cccc(Br)c1)c1ccc(NC(=O)Cn2c(=O)c3c(ncn3C)n(C)c2=O)cc1 [Compound 15a, N-(4-(1-(2-(3-Bromobenzoyl)hydrazono)ethyl)phenyl)-2-(3,7-dimethyl-2,6-dioxo-2,3,6,7-tetrahydro-1H-purin-1-yl)acetamide]
IC50 (Vero cells; Chlorocebus sabaeus, Vero, read-out: IC50 against Vero cells): 75200 nM | selectivity index against HepG2 (Vero cells; based on Vero IC50 versus HepG2 IC50): 98.97 | selectivity index against MCF7 (Vero cells; based on Vero IC50 versus MCF-7 IC50): 69.64 | MM-GBSA binding energy smaller than that of the reference compound by (VEGFR-2 [1]): 8.5 kcal/mol | increase of caspase-9 level compared to control (caspase-9; HepG2, 0.76 μM (IC50 value)): 2.37 fold | Protein expression Caspase-9 (caspase-9; [5]): 2.378 | Apoptosis Late (HepG2 cells [2]; HepG2, 0.76 µM for 72 h, control 0.13): 12.17 | Apoptosis Early (HepG2 cells [2]; HepG2, 0.76 µM for 72 h, control 0.71): 9.63 | Necrosis (HepG2 cells [2]; HepG2, 0.76 µM for 72 h, control 2.22): 7.69 | Apoptosis Total (HepG2 cells [2]; HepG2, 0.76 µM for 72 h, control 3.06): 29.49 | proportion of HepG2 cells in late-stage apoptosis (HepG2 cells [2]; HepG2, from 0.71% in control): 9.63% | proportion of HepG2 cells in early-stage apoptosis (HepG2 cells [2]; HepG2, from 3.06% in control): 29.49% | IC50 (HepG2): 760 ± 10 nM | IC50 (VEGFR-2 [3]): 239 nM | IC50 (MCF-7): 1080 ± 20 nM | decrease of scratch width (HepG2 cells [4]; HepG2, within 48 hours, untreated 65.9%): 34.17% | At 0 h Area (HepG2 cells [4]; HepG2 scratch, 0 h): 1000.667 | At 0 h Width (HepG2 cells [4]; HepG2 scratch, 0 h): 999.7462 | At 48 h Width (HepG2 cells [4]; HepG2 scratch, 48 h, control 339.5385): 657.7792 | At 48 h Area (HepG2 cells [4]; HepG2 scratch, 48 h, control 340.5): 658.6667 | RM (HepG2 cells [4]; HepG2 scratch, after 48 hours, control 13.74681): 7.124 μm | Wound closure (HepG2 cells [4]; HepG2 scratch, after 48 hours, control 65.96135): 34.18 % μm^2 | increase of caspase-3 level compared to control (caspase-3; HepG2, 0.76 μM (IC50 value)): 3.45 fold | Protein expression Caspase-3 (caspase-3; [5]): 3.451

CC(=NNC(=O)c1ccccc1Cl)c1ccc(NC(=O)Cn2c(=O)c3c(ncn3C)n(C)c2=O)cc1 [Compound 15b, N-(4-(1-(2-(2-Chlorobenzoyl)hydrazono)ethyl)phenyl)-2-(3,7-dimethyl-2,6-dioxo-2,3,6,7-tetrahydro-1H-purin-1-yl)acetamide]
IC50 (HepG2): 780 ± 20 nM | IC50 (MCF-7): 650 ± 10 nM

CC(=NNC(=O)c1cccc(Cl)c1)c1cccc(NC(=O)Cn2c(=O)c3c(ncn3C)n(C)c2=O)c1 [Compound 16, N-(3-(1-(2-(3-Chlorobenzoyl)hydrazono)ethyl)phenyl)-2-(3,7-dimethyl-2,6-dioxo-2,3,6,7-tetrahydro-1H-purin-1-yl)acetamide]
IC50 (HepG2): 1230 ± 30 nM | IC50 (MCF-7): 2470 ± 40 nM

CC(=NNC(=O)c1cccnc1)c1ccc(NC(=O)Cn2c(=O)c3c(ncn3C)n(C)c2=O)cc1 [Compound 17, 2-(3,7-Dimethyl-2,6-dioxo-2,3,6,7-tetrahydro-1H-purin-1-yl)-N-(4-(1-(2-nicotinoylhydrazono)ethyl)phenyl)acetamide]
IC50 (HepG2): 1050 ± 10 nM | IC50 (MCF-7): 800 ± 10 nM

CNC(=O)c1cc(Oc2ccc(NC(=O)Nc3ccc(Cl)c(C(F)(F)F)c3)cc2)ccn1 [Sorafenib, reference compound]
IC50 (HepG2): 2240 ± 60 nM | IC50 (MCF-7): 3170 ± 10 nM
